Assay results: article PMC9025941, “Influence of the Type of Amino Acid on the Permeability and Properties of Ibuprofenates of Isopropyl Amino Acid Esters” (International Journal of Molecular Sciences, 2022)
Values joined by “and” are separate entries in the source; they are usually repeats but may differ in a detail not shown here. Equal entries are not always repeated. Where two headings read alike, the source gives them in different places. Marks after values point to notes of the source that are not given here.

How the values were obtained:
[1] = Thermal stability (TG/DTG): decomposition onset and maximum mass-loss rate temperature
Method: In Figure 5, the thermal stability of ibuprofen and amino acid isopropyl ester ibuprofenates was determined and compared. All TG, DTG, and c-DTA curves are in the Supplementary Materials (Figures S87–S100). The decomposition onset temperature (Tonset) and the temperature of the maximum rate of mass loss (Tmax) were determined.

[2] = n-octanol-water partition coefficient, shake flask method; details: for Log P (n-octanol-water partition coefficient): shake flask, 25 °C
[3] = In vitro skin permeation, Franz diffusion cells; details: for Q%24 h, the percentage of the applied dose permeated after 24 h / Cumulative Permeation Mass / LT, lag time: n = 3; for Q%24 h, the percentage of the applied dose permeated after 24 h / Cumulative Permeation Mass: 24 h; for EF, enhancement factor: relative to IBU; for JSS, steady-state flux: saturated solution in PBS pH 7.4, n = 3
[4] = 37 °C, cited from earlier work
[5] = parameters: method as in PMID 35516534; details: determined log P range; cited from earlier work
[6] = pH 7.4
[7] = 24 h penetration, n = 3
[8] = Solubility (saturation concentration) in deionised water and PBS pH 7.4, HPLC; details: for Solubility in Phosphate Buffer pH = 7.4: PBS pH 7.4, 32 °C; for Solubility in Water: 25 °C
[9] = Solubility in organic solvents by modified Vogel's method; details: 25 °C
[10] = shake flask; cited from earlier work
[11] = 25 °C; cited from earlier work
[12] = cited from earlier work; for Solubility in Phosphate Buffer pH = 7.4: PBS pH 7.4, 32 °C; for Solubility in Water: 25 °C
[13] = saturated solution in PBS pH 7.4, mass of compound
[14] = saturated solution in PBS pH 7.4, mass of ibuprofen

Row | Compound | Q%24 h, the percentage of the applied dose permeated after 24 h [3] | Cumulative Permeation Mass [3, 13] | Cumulative Permeation Mass [3, 14] | LT, lag time [3] | EF, enhancement factor [3] | JSS, steady-state flux [3] | Tonset, the onset temperature of the thermal degradation [1] | Accumulation in the skin [7] | Log P (n-octanol-water partition coefficient) [2] | Solubility in Phosphate Buffer pH = 7.4 ([8]; g of active compound (IBU)) | Solubility in Phosphate Buffer pH = 7.4 ([8]; g of compound) | Solubility in Water ([8]; g of active compound (IBU)) | Solubility in Water ([8]; g of compound) | Solubility in DMSO [9] | Solubility in chloroform [9] | Solubility in dichloromethane [9] | Solubility in diethyl ether [9] | Solubility in ethanol [9] | Solubility in ethyl acetate [9] | Solubility in n-hexane [9] | further results
1 | CC(C)Cc1ccc(C(C)C(=O)O)cc1 (racemic) [IBU, (RS)-2-(4-(2-methylpropyl)phenyl)propanoic acid, reference compound] | 7.408 ± 0.648% | 32.001 ± 3.167 ^a µg·cm^−2 | 32.001 ± 2.801 ^a µg IBU·cm^−2 | 1.399 ± 0.145 h | 1.00 | 3.017 ± 0.209 µg IBU cm^−2 h^−1 |  |  |  |  |  |  |  |  |  |  |  |  |  |  | Tonset, the onset temperature of the thermal degradation ([1]; TG): 189.8 °C; logP at 3 h ([2]; n-octanol/water): 3.208 ± 0.002; Papp ([3]; pig, pH 7.4): 1.94 ×10⁻⁶ cm/s; JSS, steady-state flux ([3]; listed as ibuprofen): 3.017 µg IBU cm^−2 h^−1; solubility ([4]; pH 1): 0.038 mg·cm^−3; solubility ([4]; pH 4.5): 0.084 mg·cm^−3; solubility ([4]; pH 5.5): 0.685 mg·cm^−3; solubility ([4]; pH 6.8): 3.37 mg·cm^−3; log P [5]: 2.41–4.00
2 | CC(C)Cc1ccc(C(C)C(=O)O)cc1.CSCC[C@H](N)C(=O)OC(C)C [[L-MetOiPr][IBU], L-methionine isopropyl ester ibuprofenate] |  |  |  |  |  |  | 146.2 °C |  |  |  |  |  |  |  |  |  |  |  |  |  | JSS, steady-state flux [6]: 25.312 ± 0.661 µg IBU cm^−2 h^−1
3 | CC(C)Cc1ccc(C(C)C(=O)O)cc1.CC[C@H](C)[C@H](N)C(=O)OC(C)C [[L-IleOiPr][IBU], L-isoleucine isopropyl ester ibuprofenate] | 2.318 ± 0.118% | 173.888 ± 8.815 ^b µg·cm^−2 | 94.512 ± 4.791 ^b µg IBU·cm^−2 | 1.617 ± 0.057 h | 0.31 | 9.545 µg IBU cm^−2 h^−1 and 9.545 ± 0.239 µg IBU cm^−2 h^−1 | 105.2 °C | 646.293 ± 123.070 µg IBU g^−1 | 1.652 ± 0.008 | 2.562 ± 0.010 g IBU∙dm^−3 | 4.713 ± 0.018 g∙dm^−3 | 1.483 ± 0.098 g IBU∙dm^−3 | 2.729 ± 0.180 g∙dm^−3 | + (soluble >100 mg cm^−3) | + (soluble >100 mg cm^−3) | + (soluble >100 mg cm^−3) | +/− (partially soluble 33–100 mg cm^−3) | + (soluble >100 mg cm^−3) | + (soluble >100 mg cm^−3) | − (insoluble <33 mg cm^−3) | Solubility in toluene [9]: + (soluble >100 mg cm^−3)
4 | CC(C)Cc1ccc(C(C)C(=O)O)cc1.CC(C)OC(=O)[C@@H](N)C(C)C [[L-ValOiPr][IBU], L-valine isopropyl ester ibuprofenate] | 13.698 ± 1.123% | 684.642 ± 56.109 ^b µg·cm^−2 | 386.391 ± 31.666 ^b µg IBU·cm^−2 |  | 1.85 | 43.749 ± 2.445 µg IBU cm^−2 h^−1 |  |  |  |  |  |  |  |  |  |  |  |  |  |  | Log P (n-octanol-water partition coefficient) [10]: 1.154 ± 0.004 [31]; Solubility in DMSO [11]: + [31] (soluble >100 mg cm^−3); Solubility in chloroform [11]: + [31] (soluble >100 mg cm^−3); Solubility in dichloromethane [11]: + [31] (soluble >100 mg cm^−3); Solubility in diethyl ether [11]: +/− [31] (partially soluble 33–100 mg cm^−3); Solubility in ethanol [11]: + [31] (soluble >100 mg cm^−3); Solubility in ethyl acetate [11]: +/− [31] (partially soluble 33–100 mg cm^−3); Solubility in n-hexane [11]: − [31] (insoluble <33 mg cm^−3); Solubility in toluene [11]: + [31] (soluble >100 mg cm^−3); Solubility in Phosphate Buffer pH = 7.4 ([12]; g of active compound (IBU)): 2.821 ± 0.018 [31] g IBU∙dm^−3; Solubility in Phosphate Buffer pH = 7.4 ([12]; g of compound): 4.998 ± 0.018 [31] g∙dm^−3; Solubility in Water ([12]; g of active compound (IBU)): 1.957 ± 0.007 [31] g IBU∙dm^−3; Solubility in Water ([12]; g of compound): 3.468 ± 0.007 [31] g∙dm^−3
5 | CC(C)Cc1ccc(C(C)C(=O)O)cc1.CC(C)OC(=O)C[C@H](N)C(=O)OC(C)C [[L-Asp(OiPr)2][IBU], L-aspartic acid isopropyl ester ibuprofenate] | 27.307 ± 2.851% | 812.658 ± 12.545 ^b µg·cm^−2 | 395.800 ± 41.320 ^b µg IBU·cm^−2 | 1.010 ± 0.054 h | 3.69 | 55.063 ± 1.425 µg IBU cm^−2 h^−1 | 141.7 °C | 406.961 ± 17.799 µg IBU g^−1 | 1.506 ± 0.001 | 1.449 ± 0.009 g IBU∙dm^−3 | 2.976 ± 0.018 g∙dm^−3 | 1.159 ± 0.001 g IBU∙dm^−3 | 2.380 ± 0.003 g∙dm^−3 | + (soluble >100 mg cm^−3) | + (soluble >100 mg cm^−3) | + (soluble >100 mg cm^−3) | +/− (partially soluble 33–100 mg cm^−3) | + (soluble >100 mg cm^−3) | + (soluble >100 mg cm^−3) | − (insoluble <33 mg cm^−3) | Solubility in toluene [9]: + (soluble >100 mg cm^−3)
